Reference: patent US20250381157A1, “ANTIMICROBIAL COMPOUNDS” (priority 2022, published 2025)
Like-named read-outs stand apart in the source and are kept apart here.

How the values were obtained:
Plasma stability Rat = type: in vitro ADME
recombinant human HDAC9 = biological target: T1, recombinant human HDAC9 (Homo sapiens, UniProt Q9UKV0); assay: HDAC9 in-vitro enzymatic assay; type: biochemical
T1 construct: purchased BPS 50009
Method: (§1) All of the compounds were dissolved in DMSO. A series of dilutions of the compounds were prepared with 10% DMSO in HDAC assay buffer and 5 μl of the dilution was added to a 50 μl reaction so that the final concentration of DMSO was 1% in all of reactions. The compounds were pre-incubated in duplicate at RT for 30 minutes in a mixture containing HDAC assay buffer, 5 μg BSA, HDAC enzyme and a test compound. After 30 minutes, the enzymatic reactions were initiated by the addition of HDAC substrate to a final concentration of 20 μM or 2 μM. The enzymatic reaction proceeded for 30 minutes at 37° C. After enzymatic reactions, 50 μl of 2×HDAC Developer was added to each well for the HDAC enzymes and the plate was incubated at room temperature for an additional 15 minutes. Fluorescence intensity was measured at an excitation of 360 nm and an emission of 460 nm using a Tecan Infinite M1000 microplate reader.
(§2) HDAC activity assays were performed in duplicates at each concentration. The fluorescent intensity data were analyzed using the computer software, Graphpad Prism. […] The percent activity in the presence of each compound was calculated according to the following equation: % activity=(F−Fb)/(Ft−Fb), where F=the fluorescent intensity in the presence of the compound. […] The IC50 value was determined by the concentration causing a half-maximal percent activity.

recombinant human HDAC5 = biological target: T2, recombinant human HDAC5 (Homo sapiens, UniProt Q9UQL6); assay: HDAC5 in-vitro enzymatic assay; type: biochemical
T2 construct: purchased BPS 50005
Method: as §1, §2

recombinant human HDAC6 = biological target: T3, recombinant human HDAC6 (Homo sapiens, UniProt Q9UBN7); assay: HDAC6 in-vitro enzymatic assay; type: biochemical
T3 construct: purchased BPS 50006
T3 sequence (Q9UBN7 1-1215): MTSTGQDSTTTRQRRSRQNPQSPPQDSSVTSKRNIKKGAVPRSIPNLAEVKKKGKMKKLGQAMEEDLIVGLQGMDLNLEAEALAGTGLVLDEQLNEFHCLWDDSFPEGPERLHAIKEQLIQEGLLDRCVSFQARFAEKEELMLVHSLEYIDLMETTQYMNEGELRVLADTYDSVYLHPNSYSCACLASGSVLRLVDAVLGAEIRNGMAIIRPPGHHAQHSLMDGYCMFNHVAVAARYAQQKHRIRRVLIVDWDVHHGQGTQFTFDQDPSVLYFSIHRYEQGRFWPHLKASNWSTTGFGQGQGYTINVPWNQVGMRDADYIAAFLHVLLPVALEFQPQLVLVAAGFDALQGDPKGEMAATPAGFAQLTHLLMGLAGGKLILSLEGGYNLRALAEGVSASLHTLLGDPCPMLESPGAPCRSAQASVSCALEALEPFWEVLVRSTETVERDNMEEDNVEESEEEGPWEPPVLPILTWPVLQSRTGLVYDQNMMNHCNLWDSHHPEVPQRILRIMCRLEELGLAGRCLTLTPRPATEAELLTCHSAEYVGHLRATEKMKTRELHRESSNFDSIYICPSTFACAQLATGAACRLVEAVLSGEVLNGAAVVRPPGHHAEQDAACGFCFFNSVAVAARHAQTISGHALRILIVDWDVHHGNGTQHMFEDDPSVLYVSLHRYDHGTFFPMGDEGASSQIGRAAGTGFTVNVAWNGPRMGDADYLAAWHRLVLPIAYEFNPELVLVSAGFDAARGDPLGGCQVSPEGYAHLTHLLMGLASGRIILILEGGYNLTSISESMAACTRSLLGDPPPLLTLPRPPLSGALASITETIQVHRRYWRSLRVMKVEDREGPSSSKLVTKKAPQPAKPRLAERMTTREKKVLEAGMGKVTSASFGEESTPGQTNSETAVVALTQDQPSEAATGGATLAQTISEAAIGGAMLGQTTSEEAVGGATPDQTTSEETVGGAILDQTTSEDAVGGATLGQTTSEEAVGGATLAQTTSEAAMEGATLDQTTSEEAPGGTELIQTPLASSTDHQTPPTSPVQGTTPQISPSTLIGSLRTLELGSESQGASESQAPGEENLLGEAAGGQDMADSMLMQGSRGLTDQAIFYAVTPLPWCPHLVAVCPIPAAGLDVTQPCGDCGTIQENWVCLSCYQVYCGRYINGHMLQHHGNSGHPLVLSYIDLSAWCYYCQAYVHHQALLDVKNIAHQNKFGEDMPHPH
Method: The purpose of the study is to determine the effects of Compound 1 on the enzymatic activities of recombinant human HDAC1, HDAC2, HDAC3, HDAC4, HDAC5, HDAC6, HDAC7, HDAC8, and HDAC9 using in-vitro enzymatic assays.
as §1, with “After enzymatic reactions, 50 μl of 2×HDAC Developer was added to each well for the HDAC enzymes and the plate was incubated at room temperature for an additional 15 minutes.” left out
as §2

Caco-2 cells = assay: Caco-2 cell study (permeability, efflux); type: in vitro ADME
Excerpt: Caco-2 cells are used as a model of the intestinal epithelial barrier.

recombinant human HDAC4 = biological target: T4, recombinant human HDAC4 (Homo sapiens, UniProt P56524); assay: HDAC4 in-vitro enzymatic assay; type: biochemical
T4 construct: purchased BPS 50004
Method: as §1, §2

[1] = Rat pharmacokinetics (IV, PO); type: in vivo

T2 sequence (Q9UQL6 whole entry): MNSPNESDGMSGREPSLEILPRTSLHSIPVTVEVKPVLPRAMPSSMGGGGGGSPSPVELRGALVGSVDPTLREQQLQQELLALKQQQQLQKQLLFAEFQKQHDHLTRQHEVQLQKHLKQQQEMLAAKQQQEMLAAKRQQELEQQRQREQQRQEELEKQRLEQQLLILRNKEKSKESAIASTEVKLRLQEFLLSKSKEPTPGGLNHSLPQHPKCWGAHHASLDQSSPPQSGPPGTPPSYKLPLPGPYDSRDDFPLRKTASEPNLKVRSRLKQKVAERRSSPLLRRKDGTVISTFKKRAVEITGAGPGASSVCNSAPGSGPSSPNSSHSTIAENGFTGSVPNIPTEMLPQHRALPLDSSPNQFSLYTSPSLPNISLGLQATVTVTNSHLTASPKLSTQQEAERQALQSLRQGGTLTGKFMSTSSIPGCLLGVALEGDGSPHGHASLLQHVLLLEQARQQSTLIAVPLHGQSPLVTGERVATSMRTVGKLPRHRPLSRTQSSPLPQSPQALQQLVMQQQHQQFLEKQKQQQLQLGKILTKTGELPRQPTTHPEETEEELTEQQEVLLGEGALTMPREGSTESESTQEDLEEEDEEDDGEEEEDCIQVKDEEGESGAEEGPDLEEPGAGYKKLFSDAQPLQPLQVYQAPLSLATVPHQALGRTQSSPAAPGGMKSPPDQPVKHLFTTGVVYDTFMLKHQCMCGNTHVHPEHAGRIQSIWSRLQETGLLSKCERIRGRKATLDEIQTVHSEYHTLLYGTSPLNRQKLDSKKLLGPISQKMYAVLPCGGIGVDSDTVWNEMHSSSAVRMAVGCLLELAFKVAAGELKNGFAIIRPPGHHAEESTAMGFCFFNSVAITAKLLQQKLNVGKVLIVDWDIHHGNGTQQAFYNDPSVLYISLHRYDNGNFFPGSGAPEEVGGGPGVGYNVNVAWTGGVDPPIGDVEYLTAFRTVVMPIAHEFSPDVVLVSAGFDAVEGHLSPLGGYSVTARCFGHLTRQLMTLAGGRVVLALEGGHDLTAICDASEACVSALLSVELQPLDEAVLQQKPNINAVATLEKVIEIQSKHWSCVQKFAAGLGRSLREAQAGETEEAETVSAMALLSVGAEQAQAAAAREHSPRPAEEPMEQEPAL
T1 sequence (Q9UKV0 whole entry): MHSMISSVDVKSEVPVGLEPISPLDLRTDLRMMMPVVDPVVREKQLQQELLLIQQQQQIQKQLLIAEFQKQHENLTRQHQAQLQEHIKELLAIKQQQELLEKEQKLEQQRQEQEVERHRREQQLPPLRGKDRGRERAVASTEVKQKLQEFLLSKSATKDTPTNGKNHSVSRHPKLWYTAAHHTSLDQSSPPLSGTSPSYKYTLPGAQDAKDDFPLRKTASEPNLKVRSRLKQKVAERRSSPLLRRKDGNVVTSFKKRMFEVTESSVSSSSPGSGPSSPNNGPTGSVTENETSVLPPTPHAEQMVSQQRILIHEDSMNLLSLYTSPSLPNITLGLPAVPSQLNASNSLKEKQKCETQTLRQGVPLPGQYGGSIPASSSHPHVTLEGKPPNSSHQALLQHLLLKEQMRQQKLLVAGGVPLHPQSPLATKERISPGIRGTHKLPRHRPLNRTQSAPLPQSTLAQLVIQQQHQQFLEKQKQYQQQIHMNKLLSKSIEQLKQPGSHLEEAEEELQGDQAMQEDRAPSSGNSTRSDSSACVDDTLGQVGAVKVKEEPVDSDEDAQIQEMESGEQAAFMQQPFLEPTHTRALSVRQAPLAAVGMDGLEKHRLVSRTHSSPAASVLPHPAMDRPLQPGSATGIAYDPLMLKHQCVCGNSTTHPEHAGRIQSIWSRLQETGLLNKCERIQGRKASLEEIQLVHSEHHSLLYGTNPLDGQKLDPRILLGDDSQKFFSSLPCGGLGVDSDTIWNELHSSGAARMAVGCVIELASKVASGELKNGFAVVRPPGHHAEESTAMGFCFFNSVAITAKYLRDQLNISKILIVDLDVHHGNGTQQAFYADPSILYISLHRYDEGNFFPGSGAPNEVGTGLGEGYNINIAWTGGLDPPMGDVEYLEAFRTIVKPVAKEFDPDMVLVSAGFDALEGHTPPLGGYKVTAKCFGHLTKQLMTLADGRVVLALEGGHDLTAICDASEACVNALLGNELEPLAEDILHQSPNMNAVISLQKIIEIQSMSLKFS
T4 sequence (P56524 whole entry): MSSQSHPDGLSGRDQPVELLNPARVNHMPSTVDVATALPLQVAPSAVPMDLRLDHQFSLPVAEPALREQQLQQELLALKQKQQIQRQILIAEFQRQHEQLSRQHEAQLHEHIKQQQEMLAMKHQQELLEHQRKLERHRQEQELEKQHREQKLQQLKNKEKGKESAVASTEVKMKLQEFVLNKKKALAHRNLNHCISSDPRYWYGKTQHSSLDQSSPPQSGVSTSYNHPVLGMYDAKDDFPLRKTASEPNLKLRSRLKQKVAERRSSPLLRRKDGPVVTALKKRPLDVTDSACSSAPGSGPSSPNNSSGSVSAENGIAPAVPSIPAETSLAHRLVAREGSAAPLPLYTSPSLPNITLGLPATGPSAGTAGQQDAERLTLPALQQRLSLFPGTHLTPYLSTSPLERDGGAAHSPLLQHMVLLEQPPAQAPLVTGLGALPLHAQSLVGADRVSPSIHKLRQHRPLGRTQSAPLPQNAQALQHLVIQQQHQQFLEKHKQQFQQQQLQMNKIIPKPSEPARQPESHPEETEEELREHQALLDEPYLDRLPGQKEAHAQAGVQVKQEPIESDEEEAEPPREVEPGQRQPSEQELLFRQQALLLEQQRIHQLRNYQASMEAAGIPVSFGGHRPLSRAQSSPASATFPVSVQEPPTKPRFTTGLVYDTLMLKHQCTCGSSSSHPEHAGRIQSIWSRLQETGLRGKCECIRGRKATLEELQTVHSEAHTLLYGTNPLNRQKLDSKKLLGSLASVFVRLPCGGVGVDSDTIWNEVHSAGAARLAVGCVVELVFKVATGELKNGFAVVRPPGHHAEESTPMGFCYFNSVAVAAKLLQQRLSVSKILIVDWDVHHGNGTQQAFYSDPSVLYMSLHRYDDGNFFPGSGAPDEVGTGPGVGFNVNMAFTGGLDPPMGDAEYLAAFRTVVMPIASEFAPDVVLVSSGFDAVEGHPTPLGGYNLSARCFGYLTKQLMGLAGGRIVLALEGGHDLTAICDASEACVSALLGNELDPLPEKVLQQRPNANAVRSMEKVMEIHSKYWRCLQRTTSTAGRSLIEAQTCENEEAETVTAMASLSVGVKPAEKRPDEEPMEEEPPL

C#CCOCC(=O)Nc1ccc(C(=O)Nc2ccccc2N)cc1 [Compound 1, N-(2-aminophenyl)-4-{2-[(prop-2-yn-1-yl)oxy]acetamido}benzamide]
Plasma stability Rat (Plasma stability Rat): High | IC50 (recombinant human HDAC9): > 200 µM | Inhib. HDAC9 (recombinant human HDAC9; @ 200 μM): No Inhib. @ 200 μM | IC50 (recombinant human HDAC5): > 200 µM | Inhib. HDAC5 (recombinant human HDAC5; @ 200 μM): No Inhib. @ 200 μM | IC50 (recombinant human HDAC6): > 200 µM | Inhib. HDAC6 (recombinant human HDAC6; @ 200 μM): No Inhib. @ 200 μM | Caco-2 Permeability A-B dir. (Caco-2 cells): High | Caco-2 Permeability A-B dir. (Caco-2 cells; listed as compound 1): high | Active efflux (Caco-2 cells; Caco-2): No | IC50 (recombinant human HDAC4): > 200 µM | Inhib. HDAC4 (recombinant human HDAC4; @ 200 μM): No Inhib. @ 200 μM | C_max IV - rat ([1]; IV): 177 µM | V-d IV - rat ([1]; IV): 0.565 L/kg | C_max PO - rat ([1]; PO): 3.3 µM | half-life ([1]; in vivo, PO, read-out: Elimination T½ (min) PO - rat): 34 min | half-life ([1]; in vivo, intravenous, PIV, read-out: Elimination T½ (min) PIV - rat): 66 min | bioavailability ([1]; in vivo, oral): 1%
